From patent US20250011299A1, “PYRIDAZINYL AMINO DERIVATIVES AS ALK5 INHIBITORS” (CHIESI FARMACEUTICI S.P.A., priority 2021, published 2025) come the findings set out here.

Structures can show the parent of a compound that is named as a salt.

The assay deals with T1, human ALK5 (Homo sapiens, UniProt P36897).
T1 construct: human ALK5 (recombinant TGF β1 N-term GST-tagged, 80-end); GST (N); purchased
T1 sequence (P36897 80-503 limits assumed): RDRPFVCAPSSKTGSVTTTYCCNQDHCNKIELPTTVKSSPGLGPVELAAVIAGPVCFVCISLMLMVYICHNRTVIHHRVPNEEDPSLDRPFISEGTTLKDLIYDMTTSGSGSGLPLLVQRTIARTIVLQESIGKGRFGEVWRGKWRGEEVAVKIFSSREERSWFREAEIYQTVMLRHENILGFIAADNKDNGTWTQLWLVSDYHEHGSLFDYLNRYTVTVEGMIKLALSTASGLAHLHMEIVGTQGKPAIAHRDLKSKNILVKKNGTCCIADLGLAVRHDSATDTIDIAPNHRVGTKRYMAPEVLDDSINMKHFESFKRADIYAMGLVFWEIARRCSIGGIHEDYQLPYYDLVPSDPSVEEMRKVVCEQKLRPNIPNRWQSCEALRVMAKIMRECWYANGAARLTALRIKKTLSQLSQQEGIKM
In words: ADP-GLO Kinases assay of ALK5 enzymatic activity. It counts as biochemical. To be noted: purified recombinant human ALK5, TGFβ1 peptide substrate, pIC50 converted to pKi by Cheng-Prusoff, high ATP protocol (15 μM) for very potent compounds, 25° C. The method, then: The enzymatic activity of compounds of the present invention was monitored measuring the formation of ADP using the ADP-GLO Kinases assay. Following the incubation of the purified enzyme, a substrate and ATP, the produced ADP was converted into ATP, which in turn was converted into light by Ultra-Glo Luciferase. The luminescent signal positively correlated with ADP amount and kinase activity. […] Compound and ALK5 kinase were mixed and incubated for 15 mins. […] After an incubation of 120 min, the reaction was stopped, and ADP production detected with ADP-Glo kit according to manufacturer's indications. […] After an incubation of 60 min, the kinase reaction was stopped, and ADP production detected with ADP-Glo kit according to manufacturer's indications. All reaction and incubation steps were performed at 25° C. and the assays were performed in 384-well format and validated using a selection of reference compounds tested in 11-point concentration-response curve. […] Results were expressed as pIC50 (negative logarithm of IC50) and subsequently converted to pKi (negative logarithm of […]) using the Cheng-Prusoff equation. The higher the value of pKi, the greater the inhibition of ALK5 activity.
In general, Ki refers to a dissociation constant, usually derived from enzyme kinetics or from competition with a known ligand. In the case of `CN1CCN(CC23CC(C(=O)Nc4cc(Nc5cc(-c6cc(Cl)ccc6F)nnc5SCCO)ncn4)(C2)C3)CC1` [Example 182, N-(6-{[6-(5-chloro-2-fluorophenyl)-3-[(2-hydroxyethyl)sulfanyl]pyridazin-4-yl]amino}pyrimidin-4-yl)-3-[(4-methylpiperazin-1-yl)methyl]bicyclo[1.1.1]pentane-1-carboxamide], the Ki was 0.126 to 0.316 nM.
Turning to `CN(CCC(O)C(F)(F)F)c1nnc(-c2cc(Cl)ccc2F)cc1Nc1ccnc(NC(=O)CN2C[C@@H]3C[C@H]2CN3C)c1` (single isomer, unassigned) [Example 131], the Ki was at most 0.1 nM.
With `CN1CCN(CCC(=O)Nc2cc(Nc3cc(-c4cc(Cl)ccc4F)nnc3SCC3COC(C)(C)O3)ccn2)CC1` (centres unmarked) [Example 85, N-(4-{[6-(5-chloro-2-fluorophenyl)-3-{[(2,2-dimethyl-1,3-dioxolan-4-yl)methyl]sulfanyl}pyridazin-4-yl]amino}pyridin-2-yl)-3-(4-methylpiperazin-1-yl)propanamide], the Ki was at most 0.1 nM.
For `CN1CCN([C@H]2C[C@@H](C(=O)Nc3cc(Nc4cc(-c5cc(Cl)ccc5F)nnc4SCCO)ccn3)C2)CC12CC2` [Example 90, Cis N-(4-{[6-(5-chloro-2-fluorophenyl)-3-[(2-hydroxyethyl)sulfanyl]pyridazin-4-yl]amino}pyridin-2-yl)-3-{4-methyl-4,7-diazaspiro[2.5]octan-7-yl}cyclobutane-1-carboxamide], the Ki is at most 0.1 nM.
In the case of `CN1CCN([C@H]2C[C@@H](C(=O)Nc3cc(Nc4cc(-c5cc(Cl)ccc5F)nnc4SCC4COC(C)(C)O4)ccn3)C2)CC1` (stereo partly drawn) [Example 115, Cis N-(4-{[6-(5-chloro-2-fluorophenyl)-3-{[(2,2-dimethyl-1,3-dioxolan-4-yl)methyl]sulfanyl}pyridazin-4-yl]amino}pyridin-2-yl)-3-(4-methylpiperazin-1-yl)cyclobutane-1-carboxamide] it was at most 0.1 nM; in that of `CN(C)CCOc1nnc(-c2cc(Cl)ccc2F)cc1Nc1ccnc(NC(=O)C2CC2)c1` [Example 38, N-(4-{[6-(5-chloro-2-fluorophenyl)-3-[2-(dimethylamino)ethoxy]pyridazin-4-yl]amino}pyridin-2-yl)cyclopropanecarboxamide], at most 0.1 nM.
Take `CN1CCN(CCC(=O)Nc2cc(Nc3cc(-c4cc(Cl)ccc4F)nnc3OCCN)ccn2)CC1` [Example 8, N-(4-{[3-(2-aminoethoxy)-6-(5-chloro-2-fluorophenyl)pyridazin-4-yl]amino}pyridin-2-yl)-3-(4-methylpiperazin-1-yl)propanamide]: the Ki is 0.126 to 0.316 nM.
With `CN1C[C@@H]2C[C@H]1CN2CC(=O)Nc1cc(Nc2cc(-c3cc(Cl)ccc3F)nnc2OCc2cccc(O)c2)ccn1` [Example 120, N-(4-{[6-(5-chloro-2-fluorophenyl)-3-[(3-hydroxyphenyl)methoxy]pyridazin-4-yl]amino}pyridin-2-yl)-2-[(1S,4S)-5-methyl-2,5-diazabicyclo[2.2.1]heptan-2-yl]acetamide], the Ki is at most 0.1 nM.
Consider `CCOC(=O)C(C)(C)CN(C)c1nnc(-c2cc(Cl)ccc2F)cc1Nc1ccnc(NC(=O)CCN2CCN(C)CC2)c1` [Example 145, ethyl 3-{[6-(5-chloro-2-fluorophenyl)-4-({2-[3-(4-methylpiperazin-1-yl)propanamido]pyridin-4-yl}amino)pyridazin-3-yl](methyl)amino}-2,2-dimethylpropanoate], for which the Ki was 0.126 to 0.316 nM.
For `COCC1(CN(C)c2nnc(-c3cc(Cl)ccc3F)cc2Nc2ccnc(NC(=O)CCN3CCN(C)CC3)c2)CCOC1=O` (racemic) [Example 200, N-(4-{[6-(5-chloro-2-fluorophenyl)-3-({[3-(methoxymethyl)-2-oxooxolan-3-yl]methyl}(methyl)amino)pyridazin-4-yl]amino}pyridin-2-yl)-3-(4-methylpiperazin-1-yl)propanamide], the Ki is at most 0.1 nM.
Turning to `CN1C2CC1CN([C@H]1C[C@@H](C(=O)Nc3cc(Nc4cc(-c5cc(Cl)ccc5F)nnc4SCCO)ccn3)C1)C2` [Example 175, Cis N-(4-{[6-(5-chloro-2-fluorophenyl)-3-[(2-hydroxyethyl)sulfanyl]pyridazin-4-yl]amino}pyridin-2-yl)-3-{6-methyl-3,6-diazabicyclo[3.1.1]heptan-3-yl}cyclobutane-1-carboxamide], the Ki was at most 0.1 nM.
Regarding `CSc1nnc(-c2cc(Cl)ccc2F)cc1Nc1ccnc(NC(=O)CCN2CCNCC2)c1` [Example 62, N-(4-{[6-(5-chloro-2-fluorophenyl)-3-(methylsulfanyl)pyridazin-4-yl]amino}pyridin-2-yl)-3-(piperazin-1-yl)propanamide], the Ki was at most 0.1 nM.
With `CN1CCN(CCC(=O)Nc2cc(Nc3cc(-c4cc(Cl)ccc4F)nnc3N3CCO[C@@H](C(=O)O)C3)ccn2)CC1` (stereo in doubt) [Example 134, 4-[6-(5-chloro-2-fluorophenyl)-4-({2-[3-(4-methylpiperazin-1-yl)propanamido]pyridin-4-yl}amino)pyridazin-3-yl]morpholine-2-carboxylate lithium salt], the Ki is 0.126 to 0.316 nM.
Regarding `Cc1ccc(F)c(-c2cc(Nc3ccnc(NC(=O)CCN4CCN(C)CC4)c3)c(OCC(F)(F)F)nn2)n1` [Example 68, N-(4-{[6-(3-fluoro-6-methylpyridin-2-yl)-3-(2,2,2-trifluoroethoxy)pyridazin-4-yl]amino}pyridin-2-yl)-3-(4-methylpiperazin-1-yl)propanamide], the Ki is 0.126 to 0.316 nM.
Regarding `CN1CCN([C@H]2C[C@@H](C(=O)Nc3cc(Nc4cc(-c5cc(Cl)ccc5F)nnc4OCc4cccc(O)c4)ccn3)C2)CC1` [Example 119, Cis N-(4-{[6-(5-chloro-2-fluorophenyl)-3-[(3-hydroxyphenyl)methoxy]pyridazin-4-yl]amino}pyridin-2-yl)-3-(4-methylpiperazin-1-yl)cyclobutane-1-carboxamide], the Ki was at most 0.1 nM.
As to `COC(=O)[C@H]1CN(c2nnc(-c3cc(Cl)ccc3F)cc2Nc2ccnc(NC(=O)CCN3CCN(C)CC3)c2)CCO1` (stereo in doubt) [Example 133, methyl 4-[6-(5-chloro-2-fluorophenyl)-4-({2-[3-(4-methylpiperazin-1-yl)propanamido]pyridin-4-yl}amino)pyridazin-3-yl]morpholine-2-carboxylate], the Ki was 0.126 to 0.316 nM.
In the case of `CN1CCN([C@H]2C[C@@H](C(=O)Nc3cc(Nc4cc(-c5cc(Cl)ccc5F)nnc4N(C)CC4(C)CCOC4=O)ccn3)C2)CC1` (single isomer, unassigned) [Example 135, Cis N-(4-{[6-(5-chloro-2-fluorophenyl)-3-{methyl[(3-methyl-2-oxooxolan-3-yl)methyl]amino}pyridazin-4-yl]amino}pyridin-2-yl)-3-(4-methylpiperazin-1-yl)cyclobutane-1-carboxamide] it was at most 0.1 nM; in that of `CN1CCN(CCC(=O)Nc2cc(Nc3cc(-c4cc(Cl)ccc4F)nnc3SCCO)ncn2)CC1` [Example 176, N-(6-{[6-(5-chloro-2-fluorophenyl)-3-[(2-hydroxyethyl)sulfanyl]pyridazin-4-yl]amino}pyrimidin-4-yl)-3-(4-methylpiperazin-1-yl)propanamide], at most 0.1 nM.
In the case of `CN1CCN([C@H]2C[C@@H](C(=O)Nc3cc(Nc4cc(-c5cc(Cl)ccc5F)nnc4N(C)C)ccn3)C2)CC1` [Example 97, cis N-(4-{[6-(5-chloro-2-fluorophenyl)-3-(dimethylamino)pyridazin-4-yl]amino}pyridin-2-yl)-3-(4-methylpiperazin-1-yl)cyclobutane-1-carboxamide] it was at most 0.1 nM; in that of `CN1CCN(CCOc2ccc3c(Nc4cc(-c5cc(Cl)ccc5F)nnc4OCC(F)F)ccnc3c2)CC1` [Example 3, N-[6-(5-chloro-2-fluorophenyl)-3-(2,2-difluoroethoxy)pyridazin-4-yl]-7-[2-(4-methylpiperazin-1-yl)ethoxy]quinolin-4-amine], at most 0.1 nM.
Regarding `CNc1nnc(-c2cc(Cl)ccc2F)cc1Nc1ccnc(NC(=O)CCN2CCN(C)CC2)c1` [Example 29], the Ki was at most 0.1 nM.
For `CSCCCOc1nnc(-c2cc(Cl)ccc2F)cc1Nc1ccnc(N)c1` [Example 55, N4-[6-(5-chloro-2-fluorophenyl)-3-[3-(methylsulfanyl)propoxy]pyridazin-4-yl]pyridine-2,4-diamine], the Ki was 0.126 to 0.316 nM.
In the case of `COc1nnc(-c2cc(Cl)ccc2F)cc1Nc1ccc2ncsc2c1` [Example C1, [6-(5-Chloro-2-fluorophenyl)-3-methoxypyridazin-4-yl]-1,3-benzothiazol-6-amine, reference compound] it was 6.31 nM.
